The assay addresses T1, Miro2 (Homo sapiens, UniProt Q8IXI1).
T1 construct: Miro1 Reducer had no influence on Miro2 in either healthy or PD cells; endogenous in cells; host or cells: human skin fibroblasts (Healthy-1, PD-2)
The experiment in a line: Miro2 response to CCCP in fibroblasts, Western blotting. The class given is cell-based. The note with it: healthy or PD cells, CCCP 6 hrs. How it is done:
FIG. 2A-FIG. 2F. Miro1 Reducer Eliminates the Miro1 Defect in PD Fibroblasts. (FIG. 2A) Chemical properties of Miro1 Reducer. (FIG. 2B) Wild-type flies (w^1118) were fed with DMSO alone (0 μM Miro1 Reducer) or Miro1 Reducer in DMSO at 250 μM for 7 days, and lysed and blotted as indicated. The band intensities are normalized to those of Tubulin from the same blots. n=4. (FIG. 2C-FIG. 2E) Fibroblasts were treated, lysed, and blotted as indicated. (FIG. 2C) Band intensities are normalized to those of GAPDH from the same blots and compared to “Healthy-1, no treatment” except otherwise indicated. n=4. (FIG. 2D) Band intensities are normalized to those of ATP5β from the same blots and expressed as a percentage of the mean of “0 μM Miro1 Reducer with CCCP”. Mean±S.E.M is shown. n=3. (FIG. 2E) Band intensities are normalized to those of GAPDH from the same blots and compared to “Healthy-1, no CCCP, no MG132” except otherwise indicated. n=4. (FIG. 2F) Healthy-1 and PD-2 fibroblasts were transfected as indicated, and immunostained with anti-Myc (Miro1, green) and stained with Dapi (blue). The Miro1 intensity is normalized to that of mito-dsRed from the same cell and quantified across 37-62 cells from 5 fields each transfection, 3 independent transfections. Scale bars: 50 μm. For (FIG. 2C-FIG. 2F), both CCCP and Miro1 Reducer were dissolved in DMSO. […]
(In general: Immunoblotting shows a protein as a band on a membrane.)

T1 sequence (Q8IXI1 whole entry): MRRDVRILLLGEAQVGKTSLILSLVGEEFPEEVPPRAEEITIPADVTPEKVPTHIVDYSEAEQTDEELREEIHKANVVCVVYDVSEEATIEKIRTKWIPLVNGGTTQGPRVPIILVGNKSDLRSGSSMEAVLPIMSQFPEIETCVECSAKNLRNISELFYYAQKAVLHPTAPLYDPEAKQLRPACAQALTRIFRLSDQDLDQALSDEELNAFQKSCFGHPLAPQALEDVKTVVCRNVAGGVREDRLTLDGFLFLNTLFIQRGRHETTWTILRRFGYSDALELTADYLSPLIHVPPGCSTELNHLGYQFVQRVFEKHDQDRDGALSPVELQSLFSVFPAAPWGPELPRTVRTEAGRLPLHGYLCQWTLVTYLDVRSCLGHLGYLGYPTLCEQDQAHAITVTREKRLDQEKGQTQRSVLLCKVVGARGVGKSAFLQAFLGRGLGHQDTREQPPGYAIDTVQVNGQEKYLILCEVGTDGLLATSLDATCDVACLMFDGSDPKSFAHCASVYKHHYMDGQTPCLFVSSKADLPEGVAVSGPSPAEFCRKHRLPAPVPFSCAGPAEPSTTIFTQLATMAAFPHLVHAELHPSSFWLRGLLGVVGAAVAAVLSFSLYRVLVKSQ

For `O=C(Nc1ccc(Nc2cc(-n3ccnc3)ncn2)cc1)Nc1cccc(F)c1` [Miro1 Reducer], the “influence on Miro2” value is “no influence”.
